# What was measured:
# Interleukin 6 (IL-6) = experiment: Inhibition of IL-6 secretion in IL-1β-stimulated synovial fibroblasts (SW982), ELISA; type: cell-based; details: human synovial fibroblasts stimulated with IL-1β, treated 24 hrs, FIG. 14A
# Description: Synovial fibroblasts (SW982 cells; ATCC) were cultured in Leibovitz's L-15 Medium (ATCC) with 10% FBS at 37° C. and 0% CO2. 24 hours before the start of the assay, media was changed to Leibovitz's L-15 Medium with […]. Compound 10 was dissolved in DMSO as a 10 mM stock and used to prepare compound source plates. A serial dilution (8-point dose-response) and compound transfer was performed using the ECHO 550 (Labcyte, Sunnyvale, Calif.) into 96-well clear bottom assay plates (Greiner Bio-One) with appropriate DMSO backfill for a final DMSO concentration of 0.05%. […] Plates were spun in a centrifuge for 1 minute at 10,000 rpm and supernatants were collected for ELISA.
# Supernatants were diluted 1:1 for the TNFα assay and 1:4 for the IL6 assay using the assay medium. ELISA was performed using Human TNF-α ELISA MAX™ Deluxe (Catalog #430204, Biolegend, San Diego, Calif.) and Human IL-6 ELISA MAX™ Deluxe (Catalog #430504, Biolegend, San Diego, Calif.) kits. […] Following several washes to remove unbound avidin-HRP, the TMB substrate was added and the plates were read on the Cytation 3 plate reader (Biotek Inc., Winooski, Vt.) at an absorbance of 450 nm with correction at 570 nm. […] Inhibition profile and EC50 was calculated using Prism 5 (GraphPad Software Inc, La Jolla, Calif., USA).
# IFN-γ = experiment: Inhibition of IFN-γ in LPS-stimulated primary PBMCs (MSD U-plex); type: cell-based; details: human PBMCs, LPS (500 ng/mL), Compound 10 (150 nM), 24 hrs; MSD platform; FIG. 15
# Description: (§1) Primary peripheral blood mononuclear cells (PBMCs) freshly isolated from healthy human donors were obtained from AllCells Inc. and utilized for assays immediately. Compound 10 was dissolved in DMSO as a 10 mM stock and used to prepare compound source plates. A serial dilution (8-point dose-response) and compound transfer was performed using the ECHO 550 (Labcyte, Sunnyvale, Calif.) into 96-well clear bottom assay plates (Greiner Bio-One) with appropriate DMSO backfill for a final DMSO concentration of 0.05%. PBMCs were plated at 2×10e^5 cells/well in Roswell Park Memorial Institute (RPMI) 1640 Medium (Catalog #21870-100, Buffalo, N.Y.) with 1% L-glutamine, 1% HEPES, 1% Sodium Pyruvate, 2% Sodium Bicarbonate supplemented with 100 units/mL penicillin, 50 μg/mL streptomycin and 1% fetal bovine serum (Catalog #16140089, Life Technologies, Carlsbad, Calif.). […]
# (§2) Supernatants were diluted appropriately for ELISA. […] Following several washes to remove unbound avidin-HRP, the TMB substrate was added and the plates were read on the Cytation 3 plate reader (Biotek Inc., Winooski, Vt.) at an absorbance of 450 nm with correction at 570 nm. […] Inhibition profile and EC50 was calculated using Prism 5 (GraphPad Software Inc, La Jolla, Calif., USA). […] Levels of cytokines were calculated using software form Meso Scale Discovery.
# IL-2 = experiment: Inhibition of IL-2 in LPS-stimulated primary PBMCs (MSD U-plex); type: cell-based; details: human PBMCs, LPS (500 ng/mL), Compound 10 (150 nM), 24 hrs; MSD platform; FIG. 15
# Description: as §1, §2
# IL-1β = experiment: Inhibition of IL-1β in LPS-stimulated primary PBMCs (MSD U-plex); type: cell-based; details: human PBMCs, LPS (500 ng/mL), Compound 10 (150 nM), 24 hrs; MSD platform; FIG. 15
# Description: as §1, §2
# TNF-α = experiment: Inhibition of TNF-α in LPS-stimulated primary PBMCs (ELISA, MSD U-plex); type: cell-based; details: human PBMCs, LPS (500 ng/mL), Compound 10 (150 nM), 24 hrs; MSD platform; FIG. 15
# Description: as §1, §2
# [1] = Persistence and half-life of radiolabeled Compound 10 in rat knee joints; type: in vivo; details: SD rats
# Excerpt: […] These same animals were used for the QWBA experiments (above).
# On Day 180, only about ˜6.6% of administered dose was detected.
# IL-5 = experiment: Inhibition of IL-5 in LPS-stimulated primary PBMCs (MSD U-plex); type: cell-based; details: human PBMCs, LPS (500 ng/mL), Compound 10 (150 nM), 24 hrs; MSD platform; FIG. 15
# Description: as §1, §2
# [2] = time points Days 14-90 only, excluding Day 180
smiles,measurement,setting,value
CC(C)CC(=O)Nc1cncc(-c2ccc3[nH]nc(-c4nc5c(-c6cccc(F)c6)cncc5[nH]4)c3c2)c1 [Compound 10],inhibition of IL-6 secretion,Interleukin 6 (IL-6),inhibition
same,Inhibition of IFN-γ,IFN-γ,Inhibition
same,Inhibition of IL-2,IL-2,Inhibition
same,Inhibition of IL-1β,IL-1β,Inhibition
same,Inhibition of TNF-α,TNF-α,Inhibition
same,mean % of administered dose per knee,"[1]; 1 μg/knee IA, Day 14",64%
same,mean % of administered dose per knee,"[1]; 1 μg/knee IA, Day 30",54%
same,mean % of administered dose per knee,"[1]; 1 μg/knee IA, Day 60",42%
same,mean % of administered dose per knee,"[1]; 1 μg/knee IA, Day 90",38%
same,% of administered dose detected in knee joint,"[1]; 1 μg/knee IA, Day 180",~6.6%
same,detection in the knee joint space (radiographic images),[1]; Day 180,still detectable
same,"elimination rate constant, Ke","[1]; all time points, Days 14-180",0.01342
same,half-life (T1/2) in the knee joint,"[1]; all time points, Days 14-180",51.64 days
same,"elimination rate constant, Ke",[1]; [2],0.00687
same,half-life (T1/2) in the knee joint,[1]; [2],100.9 days
same,administered radioactivity recovered in each knee joint,"[1]; two IA injections at 1 μg/knee, 1 h post-IA injection up to 168 h",60-85%
same,Inhibition of IL-5,IL-5,Inhibition

# From US11667632B2, “2-(1H-indazol-3-yl)-3H-imidazo[4,5-C]pyridines and their anti-inflammatory uses thereof” (BioSplice Therapeutics, Inc., priority 2015, dated 2023)
